Like-named read-outs stand apart in the source and are kept apart here. Marks after values point to notes of the source that are not given here.
Columns and labels:
[1] = system: postmenopausal women with osteoporosis; assay: ACTIVExtend study: fractures at month 25 (abaloparatide or placebo 18 months, then alendronate 6 months); assay type: in vivo, human; conditions: abaloparatide 80 μg/day or placebo 18 months
[2] = system: postmenopausal women with osteoporosis
[3] = system: postmenopausal women with osteoporosis; conditions: in vivo
Description: (§1) Safety evaluations performed in the ACTIVE trial included physical examinations, vital signs, 12-lead electrocardiograms, or ECGs, clinical laboratory tests and monitoring, and recording of adverse events. Specific safety assessments included pre-dose and post-dose (four hours) determination of serum calcium, determination of creatinine clearance, post-dose ECG assessments at selected visits, and assessments of postural hypotension (60 minutes post-dose) at selected clinic visits.
(§2) The ACTIVE trial also evaluated several potential safety measures, including blood calcium levels, orthostatic hypotension, nausea, dizziness, and injection-site reactions.

[4] = system: postmenopausal women with osteoporosis; conditions: in vivo; remark: listed apart in the source
Description: All subjects received supplemental calcium (500-1000 mg) and vitamin D (400-800 IU) per local practice. […] Blood calcium levels were assessed 4-hours and 24-hours after drug administration. Subjects were monitored for adverse events (AEs) and local tolerance at the injection site at each visit. Clinical and laboratory safety parameters, electrocardiograms, were also measured at each study visit.
Efficacy and safety were assessed using all randomized patients who received at least one dose of study drug. Baseline characteristics and safety parameters were summarized using descriptive statistics. […] All hypotheses were tested at the 2-sided 5% significance level.

[5] = system: postmenopausal women with osteoporosis; assay: ACTIVE trial: adverse events; conditions: 18 months; abaloparatide 80 μg (n = 822), teriparatide 20 μg (n = 818)
Description: as §1, §2

[6] = during alendronate treatment, ACTIVExtend

alendronate [PBO/ALN]
Fracture Rate, incident clinical fractures [1]: 7.1% | Fracture Rate, incident non-vertebral fractures [1]: 5.5% | Fracture Rate, major osteoporotic fractures [1]: 4.6% | Fracture Rate, new incident vertebral fractures [1]: 4.4% | AE: Abdominal pain, upper [2, 6]: 2.6% | AE: Arthralgia [2, 6]: 4.7% | AE: Back pain [2, 6]: 2.1% | AE: Bone Pain [2, 6]: 1.2% | AE: Diarrhea [2, 6]: 1.4% | AE: Dyspepsia [2, 6]: 2.2% | AE: Hypercalciuria [2, 6]: 1.6% | AE: Hypertension [2, 6]: 2.1% | AE: Nasopharyngitis [2, 6]: 1.4% | AE: Pain in extremity [2, 6]: 2.4% | AE: Upper respiratory tract infection [2, 6]: 4.5% | AE: Urinary tract infection [2, 6]: 1.0% | AE: Influenza ([2]; human, in vivo): 1.0%

CC[C@H](C)[C@H](NC(=O)[C@H](CO)NC(=O)[C@H](CCCCN)NC(=O)CNC(=O)[C@H](CCCCN)NC(=O)[C@H](CC(=O)O)NC(=O)[C@H](Cc1cnc[nH]1)NC(=O)[C@H](CC(C)C)NC(=O)[C@H](CC(C)C)NC(=O)[C@H](CCC(N)=O)NC(=O)[C@H](Cc1cnc[nH]1)NC(=O)[C@H](CCC(=O)O)NC(=O)[C@H](CO)NC(=O)[C@@H](NC(=O)[C@H](C)N)C(C)C)C(=O)N[C@@H](CCC(N)=O)C(=O)N[C@@H](CC(=O)O)C(=O)N[C@@H](CC(C)C)C(=O)N[C@@H](CCCNC(=N)N)C(=O)N[C@@H](CCCNC(=N)N)C(=O)N[C@@H](CCCNC(=N)N)C(=O)N[C@@H](CCC(=O)O)C(=O)N[C@@H](CC(C)C)C(=O)N[C@@H](CC(C)C)C(=O)N[C@@H](CCC(=O)O)C(=O)N[C@@H](CCCCN)C(=O)N[C@@H](CC(C)C)C(=O)N[C@@H](CC(C)C)C(=O)NC(C)(C)C(=O)N[C@@H](CCCCN)C(=O)N[C@@H](CC(C)C)C(=O)N[C@@H](Cc1cnc[nH]1)C(=O)N[C@H](C(=O)N[C@@H](C)C(N)=O)[C@@H](C)O [abaloparatide, [Glu^22,25, Leu^23,28,31, Aib^29, Lys^26,30]hPTHrP(1-34)NH2]
AE: Hypercalcemia (serum albumin-corrected calcium value ≧10.7 mg/dL) [3]: 3.41%^† | Anti-abaloparatide antibody titer in positive patients [4]: ≤ 1:20 | Patients with positive anti-abaloparatide antibody titer [4]: 12% | AE: Influenza [5]: 6.3%
